Data as given in PubChem BioAssay (NCI).
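Exposure lasted 48 hours, with cells grown in 96-well plates and compounds tested at five concentrations. TGI is the concentration that stops growth completely.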

Columns and labels:
Test in all cases: NCI anticancer screen, dose series, 48 h
HCC-2998 colon = system: HCC-2998 colon
LOX IMVI melanoma = system: LOX IMVI melanoma
BT-549 breast = system: BT-549 breast
HT29 colon = system: HT29 colon
CAKI-1 renal = system: CAKI-1 renal
MOLT-4 leukemia = system: MOLT-4 leukemia
EKVX NSCLC = system: EKVX NSCLC
RPMI-8226 leukemia = system: RPMI-8226 leukemia
A498 renal = system: A498 renal
SK-MEL-28 melanoma = system: SK-MEL-28 melanoma
SR leukemia = system: SR leukemia
M14 melanoma = system: M14 melanoma
SN12C renal = system: SN12C renal
NCI-H226 lung = system: NCI-H226 lung
NCI-H23 lung = system: NCI-H23 lung
MDA-MB-231 breast = system: MDA-MB-231 breast
786-0 renal = system: 786-0 renal
NCI-H522 lung = system: NCI-H522 lung
MALME-3M melanoma = system: MALME-3M melanoma
PC-3 prostate = system: PC-3 prostate
SW-620 colon = system: SW-620 colon
HCT-15 colon = system: HCT-15 colon
OVCAR-8 ovarian = system: OVCAR-8 ovarian
UACC-62 melanoma = system: UACC-62 melanoma
COLO 205 colon = system: COLO 205 colon
IGROV1 ovarian = system: IGROV1 ovarian
ACHN renal = system: ACHN renal
T-47D breast = system: T-47D breast
KM12 colon = system: KM12 colon
UO-31 renal = system: UO-31 renal
SNB-75 CNS = system: SNB-75 CNS
SF-268 CNS = system: SF-268 CNS
HL-60(TB) leukemia = system: HL-60(TB) leukemia
HS 578T breast = system: HS 578T breast
SF-539 CNS = system: SF-539 CNS
MCF7 breast = system: MCF7 breast
A549 NSCLC = system: A549 NSCLC
HCT-116 colon = system: HCT-116 colon
MDA-N = system: MDA-N
SF-295 CNS = system: SF-295 CNS
SK-MEL-5 melanoma = system: SK-MEL-5 melanoma
TK-10 renal = system: TK-10 renal
NCI-H460 lung = system: NCI-H460 lung
CCRF-CEM leukemia = system: CCRF-CEM leukemia
SNB-19 CNS = system: SNB-19 CNS
K-562 leukemia = system: K-562 leukemia
MDA-MB-435 = system: MDA-MB-435
UACC-257 melanoma = system: UACC-257 melanoma
SK-OV-3 ovarian = system: SK-OV-3 ovarian
HOP-62 NSCLC = system: HOP-62 NSCLC
DU-145 prostate = system: DU-145 prostate
HOP-92 NSCLC = system: HOP-92 NSCLC
U251 CNS = system: U251 CNS
NCI/ADR-RES ovarian = system: NCI/ADR-RES ovarian
SK-MEL-2 melanoma = system: SK-MEL-2 melanoma
OVCAR-4 ovarian = system: OVCAR-4 ovarian
OVCAR-3 ovarian = system: OVCAR-3 ovarian
OVCAR-5 ovarian = system: OVCAR-5 ovarian

SMILES: COc1cc(OC)c2c(c1-c1ccc(C)cc1)CC(C)N(Cc1ccccc1)[C@H]2C (stereo not given in full)
- TGI (HCC-2998 colon): > 100 µM
- TGI (LOX IMVI melanoma): > 100 µM
- TGI (BT-549 breast): > 100 µM
- TGI (HT29 colon): 69.7 µM
- TGI (CAKI-1 renal): > 100 µM
- TGI (MOLT-4 leukemia): > 100 µM
- TGI (EKVX NSCLC): > 100 µM
- TGI (RPMI-8226 leukemia): 52.3 µM
- TGI (A498 renal): > 100 µM
- TGI (SK-MEL-28 melanoma): > 100 µM
- TGI (SR leukemia): > 100 µM
- TGI (M14 melanoma): > 100 µM
- TGI (SN12C renal): > 100 µM
- TGI (NCI-H226 lung): > 100 µM
- TGI (NCI-H23 lung): > 100 µM
- TGI (MDA-MB-231 breast): > 100 µM
- TGI (786-0 renal): > 100 µM
- TGI (NCI-H522 lung): 72.8 µM
- TGI (MALME-3M melanoma): 53.2 µM
- TGI (PC-3 prostate): > 100 µM
- TGI (SW-620 colon): > 100 µM
- TGI (HCT-15 colon): > 100 µM
- TGI (OVCAR-8 ovarian): > 100 µM
- TGI (UACC-62 melanoma): > 100 µM
- TGI (COLO 205 colon): > 100 µM
- TGI (IGROV1 ovarian): > 100 µM
- TGI (ACHN renal): > 100 µM
- TGI (T-47D breast): > 100 µM
- TGI (KM12 colon): > 100 µM
- TGI (UO-31 renal): > 100 µM
- TGI (SNB-75 CNS): > 100 µM
- TGI (SF-268 CNS): > 100 µM
- TGI (HL-60(TB) leukemia): 43.4 µM
- TGI (HS 578T breast): 67.3 µM
- TGI (SF-539 CNS): > 100 µM
- TGI (MCF7 breast): > 100 µM
- TGI (A549 NSCLC): > 100 µM
- TGI (HCT-116 colon): > 100 µM
- TGI (MDA-N): > 100 µM
- TGI (SF-295 CNS): > 100 µM
- TGI (SK-MEL-5 melanoma): 51.5 µM
- TGI (TK-10 renal): > 100 µM
- TGI (NCI-H460 lung): > 100 µM
- TGI (CCRF-CEM leukemia): > 100 µM
- TGI (SNB-19 CNS): > 100 µM
- TGI (K-562 leukemia): > 100 µM
- TGI (MDA-MB-435): > 100 µM
- TGI (UACC-257 melanoma): 68.5 µM
- TGI (SK-OV-3 ovarian): > 100 µM
- TGI (HOP-62 NSCLC): > 100 µM
- TGI (DU-145 prostate): > 100 µM

SMILES: c1ccc2c(c1)SC1=C(SC(=C3SC4=C(S3)Sc3ccccc3S4)S1)S2
- TGI (HCC-2998 colon): > 100 µM
- TGI (HOP-92 NSCLC): > 100 µM
- TGI (LOX IMVI melanoma): > 100 µM
- TGI (BT-549 breast): > 100 µM
- TGI (HT29 colon): > 100 µM
- TGI (CAKI-1 renal): > 100 µM
- TGI (MOLT-4 leukemia): > 100 µM
- TGI (EKVX NSCLC): > 100 µM
- TGI (RPMI-8226 leukemia): > 100 µM
- TGI (SK-MEL-28 melanoma): > 100 µM
- TGI (M14 melanoma): > 100 µM
- TGI (SN12C renal): > 100 µM
- TGI (U251 CNS): > 100 µM
- TGI (NCI-H226 lung): > 100 µM
- TGI (NCI/ADR-RES ovarian): > 100 µM
- TGI (NCI-H23 lung): > 100 µM
- TGI (MDA-MB-231 breast): > 100 µM
- TGI (786-0 renal): > 100 µM
- TGI (NCI-H522 lung): > 100 µM
- TGI (MALME-3M melanoma): > 100 µM
- TGI (PC-3 prostate): > 100 µM
- TGI (SW-620 colon): > 100 µM
- TGI (HCT-15 colon): > 100 µM
- TGI (OVCAR-8 ovarian): > 100 µM
- TGI (UACC-62 melanoma): > 100 µM
- TGI (SK-MEL-2 melanoma): > 100 µM
- TGI (COLO 205 colon): > 100 µM
- TGI (IGROV1 ovarian): > 100 µM
- TGI (ACHN renal): > 100 µM
- TGI (T-47D breast): > 100 µM
- TGI (KM12 colon): > 100 µM
- TGI (UO-31 renal): > 100 µM
- TGI (OVCAR-4 ovarian): > 100 µM
- TGI (SNB-75 CNS): > 100 µM
- TGI (SF-268 CNS): > 100 µM
- TGI (HL-60(TB) leukemia): > 100 µM
- TGI (HS 578T breast): > 100 µM
- TGI (SF-539 CNS): > 100 µM
- TGI (OVCAR-3 ovarian): > 100 µM
- TGI (MCF7 breast): > 100 µM
- TGI (A549 NSCLC): > 100 µM
- TGI (HCT-116 colon): > 100 µM
- TGI (MDA-N): > 100 µM
- TGI (SF-295 CNS): > 100 µM
- TGI (SK-MEL-5 melanoma): > 100 µM
- TGI (TK-10 renal): > 100 µM
- TGI (NCI-H460 lung): > 100 µM
- TGI (CCRF-CEM leukemia): > 100 µM
- TGI (SNB-19 CNS): > 100 µM
- TGI (MDA-MB-435): > 100 µM
- TGI (OVCAR-5 ovarian): > 100 µM
- TGI (UACC-257 melanoma): > 100 µM
- TGI (HOP-62 NSCLC): > 100 µM
- TGI (DU-145 prostate): > 100 µM

SMILES: CC(C)=CCC/C(C)=C/CO
- TGI (HCC-2998 colon): > 100 µM
- TGI (LOX IMVI melanoma): > 100 µM
- TGI (BT-549 breast): > 100 µM
- TGI (HT29 colon): > 100 µM
- TGI (CAKI-1 renal): > 100 µM
- TGI (MOLT-4 leukemia): > 100 µM
- TGI (EKVX NSCLC): > 100 µM
- TGI (RPMI-8226 leukemia): > 100 µM
- TGI (A498 renal): > 100 µM
- TGI (SK-MEL-28 melanoma): > 100 µM
- TGI (M14 melanoma): > 100 µM
- TGI (SN12C renal): > 100 µM
- TGI (U251 CNS): > 100 µM
- TGI (NCI-H226 lung): > 100 µM
- TGI (NCI/ADR-RES ovarian): > 100 µM
- TGI (NCI-H23 lung): > 100 µM
- TGI (MDA-MB-231 breast): > 100 µM
- TGI (786-0 renal): > 100 µM
- TGI (NCI-H522 lung): > 100 µM
- TGI (MALME-3M melanoma): > 100 µM
- TGI (PC-3 prostate): > 100 µM
- TGI (SW-620 colon): > 100 µM
- TGI (HCT-15 colon): > 100 µM
- TGI (OVCAR-8 ovarian): > 100 µM
- TGI (UACC-62 melanoma): > 100 µM
- TGI (SK-MEL-2 melanoma): > 100 µM
- TGI (COLO 205 colon): > 100 µM
- TGI (IGROV1 ovarian): > 100 µM
- TGI (ACHN renal): > 100 µM
- TGI (T-47D breast): > 100 µM
- TGI (KM12 colon): > 100 µM
- TGI (UO-31 renal): > 100 µM
- TGI (OVCAR-4 ovarian): > 100 µM
- TGI (SF-268 CNS): > 100 µM
- TGI (HL-60(TB) leukemia): > 100 µM
- TGI (HS 578T breast): > 100 µM
- TGI (SF-539 CNS): > 100 µM
- TGI (OVCAR-3 ovarian): > 100 µM
- TGI (MCF7 breast): > 100 µM
- TGI (A549 NSCLC): > 100 µM
- TGI (HCT-116 colon): > 100 µM
- TGI (MDA-N): > 100 µM
- TGI (SF-295 CNS): > 100 µM
- TGI (SK-MEL-5 melanoma): > 100 µM
- TGI (TK-10 renal): > 100 µM
- TGI (NCI-H460 lung): > 100 µM
- TGI (CCRF-CEM leukemia): > 100 µM
- TGI (SNB-19 CNS): > 100 µM
- TGI (K-562 leukemia): > 100 µM
- TGI (MDA-MB-435): > 100 µM
- TGI (OVCAR-5 ovarian): > 100 µM
- TGI (UACC-257 melanoma): > 100 µM
- TGI (SK-OV-3 ovarian): > 100 µM
- TGI (HOP-62 NSCLC): > 100 µM
- TGI (DU-145 prostate): > 100 µM
